Patent publication US20240034723A1, “PIPERIDINYL SMALL MOLECULE DEGRADERS OF HELIOS AND METHODS OF USE” (DANA-FARBER CANCER INSTITUTE, INC., priority 2020, published 2024)

Target: T1, IKZF2 (Helios) (Homo sapiens, UniProt Q96SW2+Q9UKS7)
T1 construct: CRISPR/Cas-mediated insertion of the HiBiT peptide tag (Promega™) to the N-terminus of the IKZF2 gene locus; endogenous in cells; host or cells: MOLT4 cells, CRISPR/Cas knock-in of HiBiT at the endogenous IKZF2 locus
Test: HiBiT protocol: HiBiT-Helios degradation in MOLT4 cells (Example 63)
Format: cell-based
Settings: after 6 hours of treatment, 13-point 10 μM to 0.00026 μM
Protocol: The HiBiT protein tagging system was applied to MOLT4 cells via a CRISPR/Cas-mediated insertion of the HiBiT peptide tag (Promega™) to the N-terminus of the IKZF2 gene locus (Neon™ Transfection System). The resulting HiBiT-Helios stable cell line was treated with the following inventive compounds in triplicates following a 13-point concentration scheme ranging from 10 μM to 0.00026 μM. At the indicated timepoints, the Nano-Glo® HiBiT Lytic Detection system (Promega™) was utilized for detecting bioluminescence of the HiBiT tag in treated cells: the abundance of the tag is proportionate to the level of luminescence. Following normalization to DMSO, dose-response curves were plotted (GraphPad Prism) to determine the concentration points at which 50% of HiBiT-Helios degradation was achieved by each compound. The extent of degradation (range of luminescence) from the highest to lowest concentration points was calculated to determine Dmax.

T1 sequence (Q9UKS7 whole entry): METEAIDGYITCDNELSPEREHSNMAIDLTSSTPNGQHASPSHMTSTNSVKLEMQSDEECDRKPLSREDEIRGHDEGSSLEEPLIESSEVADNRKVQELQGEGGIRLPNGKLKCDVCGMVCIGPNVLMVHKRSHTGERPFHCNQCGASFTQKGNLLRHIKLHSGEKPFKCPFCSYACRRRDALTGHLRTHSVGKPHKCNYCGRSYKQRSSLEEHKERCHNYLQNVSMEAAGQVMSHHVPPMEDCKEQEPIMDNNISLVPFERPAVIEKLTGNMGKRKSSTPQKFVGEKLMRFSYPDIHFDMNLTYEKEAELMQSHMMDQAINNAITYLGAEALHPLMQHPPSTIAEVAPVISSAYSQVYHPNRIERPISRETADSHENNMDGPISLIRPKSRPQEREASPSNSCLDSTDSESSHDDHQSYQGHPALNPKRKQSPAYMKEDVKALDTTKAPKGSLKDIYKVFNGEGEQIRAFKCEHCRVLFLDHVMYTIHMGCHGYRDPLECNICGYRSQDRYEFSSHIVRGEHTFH
T1 sequence (Q96SW2 whole entry): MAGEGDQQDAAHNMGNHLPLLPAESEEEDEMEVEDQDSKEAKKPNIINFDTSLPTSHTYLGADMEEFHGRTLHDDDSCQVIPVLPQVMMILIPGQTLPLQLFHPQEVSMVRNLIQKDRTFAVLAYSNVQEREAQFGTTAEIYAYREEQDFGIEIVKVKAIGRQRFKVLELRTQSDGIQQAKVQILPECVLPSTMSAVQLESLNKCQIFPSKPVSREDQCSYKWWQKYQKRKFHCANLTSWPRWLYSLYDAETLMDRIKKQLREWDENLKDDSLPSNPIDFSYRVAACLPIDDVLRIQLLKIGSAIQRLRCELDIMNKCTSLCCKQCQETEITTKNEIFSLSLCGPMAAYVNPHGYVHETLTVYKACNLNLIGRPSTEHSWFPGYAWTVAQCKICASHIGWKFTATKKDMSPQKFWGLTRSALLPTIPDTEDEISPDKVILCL
T1 sequence (Q16531 whole entry partner): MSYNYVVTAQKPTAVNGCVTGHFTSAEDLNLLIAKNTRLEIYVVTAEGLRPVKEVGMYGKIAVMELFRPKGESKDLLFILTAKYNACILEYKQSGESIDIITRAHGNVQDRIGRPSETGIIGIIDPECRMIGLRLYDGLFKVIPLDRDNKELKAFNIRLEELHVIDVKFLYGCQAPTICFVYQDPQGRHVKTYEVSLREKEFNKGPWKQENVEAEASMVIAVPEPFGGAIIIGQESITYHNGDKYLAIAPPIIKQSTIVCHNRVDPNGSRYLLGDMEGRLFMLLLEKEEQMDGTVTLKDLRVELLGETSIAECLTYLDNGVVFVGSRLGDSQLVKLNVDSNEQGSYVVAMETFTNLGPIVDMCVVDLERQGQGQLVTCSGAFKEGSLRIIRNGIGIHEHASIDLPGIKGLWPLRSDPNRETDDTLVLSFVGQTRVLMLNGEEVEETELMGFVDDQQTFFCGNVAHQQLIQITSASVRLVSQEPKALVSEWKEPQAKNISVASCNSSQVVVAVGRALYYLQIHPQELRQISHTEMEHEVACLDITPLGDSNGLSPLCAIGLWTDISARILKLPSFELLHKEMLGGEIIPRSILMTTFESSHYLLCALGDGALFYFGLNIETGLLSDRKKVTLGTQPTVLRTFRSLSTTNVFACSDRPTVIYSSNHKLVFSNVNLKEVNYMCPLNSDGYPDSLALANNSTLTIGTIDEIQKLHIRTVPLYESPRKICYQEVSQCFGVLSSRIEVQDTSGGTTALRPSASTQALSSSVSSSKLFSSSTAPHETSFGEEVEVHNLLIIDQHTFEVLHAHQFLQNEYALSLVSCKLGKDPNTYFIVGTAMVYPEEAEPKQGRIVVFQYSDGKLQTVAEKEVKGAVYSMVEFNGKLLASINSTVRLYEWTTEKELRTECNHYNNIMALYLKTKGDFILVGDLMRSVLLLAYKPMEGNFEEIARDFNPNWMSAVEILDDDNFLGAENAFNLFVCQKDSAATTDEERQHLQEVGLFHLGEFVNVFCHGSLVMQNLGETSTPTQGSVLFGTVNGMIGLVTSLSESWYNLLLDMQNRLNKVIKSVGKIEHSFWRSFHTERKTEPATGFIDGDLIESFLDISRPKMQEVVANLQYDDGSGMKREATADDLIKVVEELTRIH

DC50 [nM] | SMILES
5 to 25 | O=C1CCC(N2Cc3cc(C4CCN(Cc5ccc6c(c5)C(=O)N(c5ccccn5)CCO6)CC4)ccc3C2=O)C(=O)N1 (centres unmarked) [Compound 3]
< 5 | O=C1CCC(N2Cc3cc(C4CCN(Cc5ccc6c(c5)N(c5ccccc5)C(=O)C6)CC4)ccc3C2=O)C(=O)N1 (centres unmarked) [Compound 18, 3-[1-oxo-5-[1-[(2-oxo-1-phenyl-indolin-6-yl)methyl]-4-piperidyl]isoindolin-2-yl]piperidine-2,6-dione]
5 to 25 | O=C1CCC(N2Cc3cc(C4CCN(Cc5ccc6ncn(-c7ccccc7F)c(=O)c6c5)CC4)ccc3C2=O)C(=O)N1 (centres unmarked) [Compound 27]
5 to 25 | O=C1CCC(N2Cc3cc(C4CCN(Cc5ccc6ncn(-c7ccccn7)c(=O)c6c5)CC4)ccc3C2=O)C(=O)N1 (centres unmarked) [Compound 31, 3-(1-oxo-5-(1-((4-oxo-3-(pyridin-2-yl)-3,4-dihydroquinazolin-6-yl)methyl)piperidin-4-yl)isoindolin-2-yl)piperidine-2,6-dione]
5 to 25 | O=C1CCC(N2Cc3cc(C4CCN(Cc5ccc6cc(-c7ccccc7)nn6c5)CC4)ccc3C2=O)C(=O)N1 (centres unmarked) [Compound 38, 3-[1-oxo-5-[1-[(2-phenylpyrazolo[1,5-a]pyridin-6-yl)methyl]-4-piperidyl]isoindolin-2-yl]piperidine-2,6-dione]
25 to 100 | O=C1CCC(N2Cc3cc(C4CCN(Cc5ccc6ccc(-c7ccccc7)nc6c5)CC4)ccc3C2=O)C(=O)N1 (centres unmarked) [Compound 41]
< 5 | O=C1CCC(N2Cc3cc(C4CCN(Cc5ccc6cn(-c7ccccc7)nc6c5)CC4)ccc3C2=O)C(=O)N1 (centres unmarked) [Compound 42]
5 to 25 | O=C1CCC(N2Cc3cc(C4CCN(Cc5ccc6cnn(-c7ccccn7)c(=O)c6c5)CC4)ccc3C2=O)C(=O)N1 (centres unmarked) [Compound 43, 3-[1-oxo-5-[1-[[4-oxo-3-(2-pyridyl)phthalazin-6-yl]methyl]-4-piperidyl]isoindolin-2-yl]piperidine-2,6-dione]
5 to 25 | O=C1CCC(N2Cc3cc(C4CCN(Cc5ccc6ncn(-c7ccccc7)c(=O)c6c5)CC4)ccc3C2=O)C(=O)N1 (centres unmarked) [Compound 44]
5 to 25 | O=C1CCC(N2Cc3cc(C4CCN(Cc5ccc6c(c5)C(=O)N(c5ncccn5)CCO6)CC4)ccc3C2=O)C(=O)N1 (centres unmarked) [Compound 46]
< 5 | O=C1CCC(N2Cc3cc(C4CCN(Cc5ccc6ccn(-c7ccccn7)c(=O)c6c5)CC4)ccc3C2=O)C(=O)N1 (centres unmarked) [Compound 57]
< 5 | O=C1CCC(N2Cc3cc(C4CCN(Cc5ccc6ncn(-c7ncccc7F)c(=O)c6c5)CC4)ccc3C2=O)C(=O)N1 (centres unmarked) [Compound 58]
5 to 25 | O=C1CCC(N2Cc3cc(C4CCN(Cc5ccc6ncn(-c7ccns7)c(=O)c6c5)CC4)ccc3C2=O)C(=O)N1 (centres unmarked) [Compound 59]

Further lines, the compound ahead of its results:

SMILES | DC50 [nM]
O=C1CCC(N2Cc3cc(C4CCN(Cc5ccc6c(c5)C(=O)N(c5ccccc5)CCO6)CC4)ccc3C2=O)C(=O)N1 (centres unmarked) [Compound 1, 3-(1-oxo-5-(1-((5-oxo-4-phenyl-2,3,4,5-tetrahydrobenzo[f][1,4]oxazepin-7-yl)methyl)piperidin-4-yl)isoindolin-2-yl)piperidine-2,6-dione] | < 5
O=C1CCC(N2Cc3cc(C4CCN(Cc5ccc6c(c5)C(=O)N(c5cccc(F)c5)CCO6)CC4)ccc3C2=O)C(=O)N1 (centres unmarked) [Compound 5] | < 5
O=C1CCC(N2Cc3cc(C4CCN(Cc5ccc6c(c5)C(=O)N(c5cccc(Cl)c5)CCO6)CC4)ccc3C2=O)C(=O)N1 (centres unmarked) [Compound 6] | < 5
O=C1CCC(N2Cc3cc(C4CCN(Cc5cc6n(n5)CCN(c5ccccc5)C6=O)CC4)ccc3C2=O)C(=O)N1 (centres unmarked) [Compound 8, 3-(1-oxo-5-(1-((4-oxo-5-phenyl-4,5,6,7-tetrahydropyrazolo[1,5a]pyrazin-2-yl)methyl)piperidin-4-yl)isoindolin-2-yl)piperidine-2,6-dione] | 5 to 25
Cn1cccc(Nc2cccc(CN3CCC(c4ccc5c(c4)CN(C4CCC(=O)NC4=O)C5=O)CC3)c2)c1=O (centres unmarked) [Compound 12, 3-(5-(1-(3-((1-Methyl-2-oxo-1,2-dihydropyridin-3-yl)amino)benzyl)piperidin-4-yl)-1-oxoisoindolin-2-yl)piperidine-2,6-dione] | 5 to 25
O=C1CCC(N2Cc3cc(C4CCN(Cc5ccc6c(c5)N(c5ccccc5)C(=O)CCC6)CC4)ccc3C2=O)C(=O)N1 (centres unmarked) [Compound 22] | 5 to 25
O=C1CCC(N2Cc3cc(C4CCN(Cc5ccc6c(c5)C(=O)N(c5ccccc5F)CCO6)CC4)ccc3C2=O)C(=O)N1 (centres unmarked) [Compound 45] | < 5
O=C1CCC(N2Cc3cc(C4CCN(Cc5ccc6c(c5)C(=O)N(c5ccncn5)CCO6)CC4)ccc3C2=O)C(=O)N1 (centres unmarked) [Compound 47] | 5 to 25
O=C1CCC(N2Cc3cc(C4CCN(Cc5ccc6c(c5)C(=O)N(c5ccsn5)CCO6)CC4)ccc3C2=O)C(=O)N1 (centres unmarked) [Compound 48] | 5 to 25
O=C1CCC(N2Cc3cc(C4CCN(Cc5ccc6c(c5)C(=O)N(c5ccns5)CCO6)CC4)ccc3C2=O)C(=O)N1 (centres unmarked) [Compound 49] | < 5
